7 molecules from patent US4421745A, “Antiepileptics” (Takeda Chemical Industries, Ltd., priority 1981, dated 1983) can be followed below.

In one data set the test system is Lennox's syndrome. Description: Clinical Case 3: DN-1417 treatment of epileptic patient. The format is in vivo, human. The procedure:
During the period from July 22 to Aug. 4, 1981, 1 mg of DN-1417 was administered intramuscularly once daily for 14 consecutive days, concomitantly with the antipileptics so far employed.

Data set [1] has as its system degenerative myoclonus epilepsy. As to the kind of experiment: Clinical Case 1: DN-1417 treatment of epileptic patient. Format: in vivo, human. The method, then: They were given DN-1417, 2 mg. i.m. at 10:00 A.M. every day for 2 weeks concomitantly with the prior antiepileptics.
In data set [2] the test system is epilepsy (tonic convulsion, tonoclonic convulsion and clonic convulsion). As to the kind of experiment: Clinical Case 4: DN-1417 treatment of epileptic patient. Format: in vivo, human. The method, then:
During the period from July 22 to Aug. 4, 1981, DN-1417 was administered intramuscularly in daily doses of 1 mg. for 14 days, together with the antiepileptics so far employed.

The subject of another data set is temporal lobe epilepsy. Description: Clinical Case 5: DN-1417 treatment of epileptic patient. The format is in vivo, human. The procedure: In addition to the prior medication of antiepileptics (10 tablets of HYDANTOL F® each containing 25 mg. phenytoin, 8 mg. phenobarbital and 17 mg. caffeine and sodium benzoate, 1 g. of carbamazepine, 0.09 g. of phenobarbital and 250 mg. of actazolamide), DN-1417 was intramuscularly administered in dose of 1 mg./day for 2 weeks. […] From the 7th day of the DN-1417 treatment they began to explain their conditions as, "The time to get off the bed from awaking has been shortened." and "Became easy to get to the next action in doing anything."Improvement of such psychic symptoms was maintained for a week after the end of the DN-1417 treatment. Automatism occurred a week after the end of the DN-1417 treatment and impaired-consciousness seizure occurred twice in the 3rd week of post-treatment.

For a further data set, the system named is West's syndrome. Description: Clinical Case 6: DN-1417 treatment of epileptic patient. The format is in vivo, human. Conditions: for Frequency of seizure occurrences: before DN-1417. The procedure: Nitrazepam in dosage of 1.5 mg./day was administered in three divided doses to show less frequency of the seizure occurrences (from 10 times a day to 6-7 times a day). […] The drowsiness was fairly ameliorated but the frequency of the seizure occurrences was not reduced (10 times a day).
DN-1417 in dosage of 0.03 mg./kg. (0.3 mg./day) was intravenously given for 22 days in addition to the treatment with nitrazepam in dosage of 0.6 mg./day.

The subject of data set [3] is epilepsy, tuberous sclerosis (tonic convulsion and atypical absence). Description: Clinical Case 2: DN-1417 treatment of epileptic patient. The format is in vivo, human. The method, then: In conjunction with the antiepileptic drugs so far used, DN-1417 was administered intramuscularly in doses of 0.5 mg. for 10 days and, then, in doses of 1 mg. for 4 days.
Data set [4] can be described thus: Blood concentrations of antiepileptics in Case 3. The source says: The treatment consisted of a multiple drug therapy using phenytoin, phenobarbital, sodium valproate, nitrazepam and clonazepam.

Take “ACTH: ACTH therapy; adrenocorticotropic hormones (SYSMEHFRWGKPVGKKRRPVKVYPNGAEDESAEAFPLEF; Corticotropin; UniProt P01189 138-176, looked up) [reference compound]”: the “Effect of ACTH therapy” value in the data set with Lennox's syndrome (before DN-1417) was “with no avail”.
Consider `O=C1CN=C(c2ccccc2Cl)c2cc([N+](=O)[O-])ccc2N1` [clonazepam, reference compound], for which the Myoclonus at rest result in data set [1] (clonazepam 2 mg daily combined with other antiepileptics, before DN-1417) is “almost complete disappearance”.
Regarding `NC(=O)[C@@H]1CCCN1C(=O)[C@H](Cc1c[nH]cn1)NC(=O)[C@@H]1CCC(=O)O1.O=C(O)CC(O)(CC(=O)O)C(=O)O` [DN-1417, (S)-γ-butyrolactone-γ-carbonyl-L-histidyl-L-prolinamide citrate], the Overall clinical effect result was “decreased incidence of clinical episodes, improved EEG findings and remarkable improvements in daily life” with Lennox's syndrome; “effective in this patient” with temporal lobe epilepsy; “effective for West's syndrome” in the data set on West's syndrome; “effective in improving myoclonus, cerebellar symptoms, psychic activity and EEG” in data set [1] (2 mg i.m. daily for 2 weeks with prior antiepileptics); “remarkable improvements in daily activity and improvements in clinical episode and EEG” in data set [3]. For the same molecule, the Side effect result in the data set on Lennox's syndrome is on record as “no side effect”; in data set [2], “no apparent side effect”; in data set [1] (2 mg daily for 2 weeks), “without any side effect”; in data set [3], “no side effect”. Besides, the Clinical episodes entry with Lennox's syndrome (1 mg i.m. once daily for 14 days with prior antiepileptics, after one week) is given as “no clinical episode”; with Lennox's syndrome (after 2 weeks), “one episode of atypical absence”; in the data set on Lennox's syndrome (one week after withdrawal), “No clinical episode”; in data set [3] (after 2 weeks), “no clinical episodes”; in data set [3] (i.m. 0.5 mg for 10 days then 1 mg for 4 days with prior antiepileptics, after one week), “No clinical episodes”. Further, the EEG result with Lennox's syndrome (after 2 weeks) was “no polyspike-and-slow wave complex and only a decreased sharp-and-slow wave complex”; in the data set with Lennox's syndrome (after one week), “decrease in polyspike-and-slow wave complex but an increase in sharp-and-slow wave complex”; in the data set with Lennox's syndrome (one week after withdrawal), “less bursts, with an increased regularity of basal wave”; in data set [2] (after 2 weeks), “fair improvement in continuity, with a regularity”; in data set [2] (after one week) it was “remarkable improvement”; in the data set on West's syndrome (2 weeks after the DN-1417 treatment) it was “did not show hypsarhythmia”. Further, the EEG result is on record as “remained unchanged” with West's syndrome (after a week); “No improvement” in data set [1] (3rd day of treatment); “frequency of paroxymal patterns was halved” in data set [3] (after 2 weeks, EEG at sleep). For the same molecule, the “Activities of daily life and mental condition (summary)” value in data set [2] was “A remarkable improvement”. The “Clinical seizures (summary)” value in data set [2] was “No change or a slight improvement”. The “EEG (summary)” value in data set [2] is “A moderate improvement”. The Overall evaluation result in data set [2] is “moderate improvement”. Also, the Epileptic seizures entry in data set [2] (1 mg i.m. daily for 14 days with prior antiepileptics, after one week) is on record as “No epileptic seizure”; in data set [2] (after 2 weeks), “No epileptic seizure”. For the same molecule, in data set [2] (three weeks after withdrawal), the Seizures after withdrawal entry is “Clonic convulsion appeared on day 6 after withdrawal”. In addition, the EEG findings entry in the data set with temporal lobe epilepsy is listed as “No noteworthy change”. Besides, in the data set on temporal lobe epilepsy (1 mg/day i.m. for 2 weeks with prior antiepileptics), the “Seizures during the treatment” value was “autonomic seizure occurred once”. Moreover, the “Psychic symptoms such as decrease of volition” value with temporal lobe epilepsy (during DN-1417 treatment) is “improved”. Besides, the Drowsiness entry in the data set with West's syndrome (after a week) was “drowsiness due to nitrazepam was reduced”. The Seizure frequency in the data set with West's syndrome (from the 2nd week of treatment, same at the 3rd week) is 5-6 times a day. In addition, in the data set on West's syndrome (whole course), the Side effects result is reported as “No side effects”. For the same molecule, the “Time after withdrawal until photomyoclonic response reappeared” value in data set [1] was “about 80 days”. The “Type of action from EEG changes and clinical symptoms” value in data set [1] is listed as “antimyoclonic action though not a definite anticonvulsive action”. Moreover, the “Continuation of clinical improvement after withdrawal of the drug” value in data set [1] (2 mg daily for 2 weeks) is given as “about 1 month”. Besides, the “Persistence of marked EEG improvements” value in data set [1] (after 2nd EEG at day 8 of treatment) is reported as “about 50 days”. For the same molecule, the “EEG response to photic stimulation” value in data set [1] (day 8 of treatment) is given as “entirely normal”.
For the molecule `CCC1(c2ccccc2)C(=O)NC(=O)NC1=O` [phenobarbital], the Blood concentration in data set [4] (Case 3, after 2 weeks of DN-1417 1 mg i.m. daily with the antiepileptics) was 24600 ng/mL; in data set [4] (Case 3, multiple drug therapy before DN-1417) it was 18900 ng/mL.
As for `CCCC(CCC)C(=O)[O-].[Na+]` [sodium valproate, reference compound], the Convulsions entry in data set [1] (after about 3 months on sodium valproate, before DN-1417) is on record as “convulsions were inhibited”. For the same molecule, in data set [1] (on sodium valproate, before DN-1417), the Myoclonus result is recorded as “remained prominent”. In data set [4] (in vivo), this molecule yielded a Blood concentration of 36000 ng/mL.
As to `O=C1CN=C(c2ccccc2)c2cc([N+](=O)[O-])ccc2N1` [Nitrazepam, nitrazepam, reference compound], in the data set on West's syndrome (nitrazepam 1.5 mg/day), the Adverse effects result is “Severe drowsiness and stridor”. For the same molecule, the “Frequency of seizure occurrences” value is recorded as 6-7 times a day with West's syndrome (nitrazepam 1.5 mg/day in three divided doses) and 10 times a day with West's syndrome (nitrazepam reduced to 0.6 mg/day).
Molecule `O=C1NC(=O)C(c2ccccc2)(c2ccccc2)N1` [phenytoin] gave a Blood concentration in data set [4] (in vivo) of 9000 ng/mL.
